The results in this text go back to patent US9670221B2, “Furopyridines as bromodomain inhibitors” (GlaxoSmithKline Intellectual Property (No.2) Limited, priority 2013, dated 2017).

Structures can show the parent of a compound that is named as a salt.

This experiment has as its target T1, BRD4 BD1 (Homo sapiens, UniProt O60885, Y390A).
T1 construct: BRD4 (1-477) (Y97A) and (Y390A); made in house; host or cells: E. coli (pET15b vector)
The experiment is described as follows: TR-FRET binding assay, BRD4 BD1 (mutant protein). To be noted: BRD4 (1-477) mutant, 10 nM protein, read-out: pIC50 in the BRD4 BD1 assay (converted). As for the experimental part: Time Resolved Fluorescence Resonance Energy Transfer (TR-FRET) Assay
Binding was assessed using a time resolved fluorescent resonance energy transfer binding assay. This utilises a 6 His purification tag at the N-terminal of the proteins as an epitope for an anti-6 His antibody labeled with Europium chelate (PerkinElmer AD0111) allowing binding of the Europium to the proteins which acts as the donor fluorophore. A small molecule, high affinity binder of the bromodomains BRD2, BRD3, BRD4 and BRDT has been labeled with Alexa Fluor647 (Reference Compound X) and this acts as the acceptor in the FRET pair.
Assay Principle: In the absence of a competing compound, excitation of the Europium causes the donor to emit at λ618 nm which excites the Alexa labelled bromodomain binding compound leading to an increased energy transfer that is measurable at λ647 […]. In the presence of a sufficient concentration of a compound that can bind these proteins, the interaction is disrupted leading to a quantifiable drop in fluorescent resonance energy transfer.
The binding of the compounds of formula (I) to Bromodomains BRD2, BRD3, BRD4 and BRDT was assessed using mutated proteins to detect differential binding to either Binding Domain 1 (BD1) or Binding Domain 2 (BD2) on the bromodomain. These single residue mutations in the acetyl lysine binding pocket greatly lower the affinity of the fluoroligand (Reference Compound X) for the mutated domain (>1000 fold selective for the non-mutated domain). Therefore in the final assay conditions, binding of the fluoroligand to the mutated domain cannot be detected and subsequently the assay is suitable to determine the binding of compounds to the single non-mutated bromodomain.
Protein production: Recombinant Human Bromodomains [(BRD2 (1-473) (Y113A) and (Y386A), BRD3 (1-435) (Y73A) and (Y348A) BRD4 (1-477) (Y97A) and (Y390A) and BRDT (1-397) (Y66A) and (Y309A)] were expressed in E. coli cells (in pET15b vector for BRD2/3/4 and in pET28a vector for BRDT) with a 6-His tag at the N-terminal. The His-tagged Bromodomain pellet was resuspended in 50 mM HEPES (pH7.5), 300 mM NaCl, 10 mM imidazole & 1 μl/mL protease inhibitor cocktail and extracted from the E. coli cells using sonication and purified using a nickel sepharose high performance column, the proteins were washed and then eluted with a linear gradient of 0-500 mM imidazole with buffer 50 mM HEPES (pH7.5), 150 mM NaCl, 500 mM imidazole, over 20 column volumes. Final purification was completed by Superdex 200 prep grade size exclusion column. Purified protein was stored at −80° C. in 20 mM HEPES pH 7.5 and 100 mM NaCl. Protein identity was confirmed by peptide mass fingerprinting and predicted molecular weight confirmed by mass spectrometry.
Protocol for Bromodomain BRD2, 3, 4 and T, BD1^+BD2 mutant assays: All assay components were dissolved in buffer composition of 50 mM HEPES pH7.4, 50 mM NaCl, 5% Glycerol, 1 mM DTT and 1 mM CHAPS. The final concentration of bromodomain proteins were 10 nM and the Alexa Fluor647 ligand was at Kd. These components were premixed and 5 μl of this reaction mixture was added to all wells containing 50 nl of various concentrations of test compound or DMSO vehicle (0.5% DMSO final) in Greiner 384 well black low volume microtitre plates and incubated in dark for 30 minutes at room temperature. 5 μl of detection mixture containing 1.5 nM final concentration anti-6His Europium chelate was added to all wells and a further dark incubation of at least 30 minutes was performed. Plates were then read on the Envision platereader, (λex=317 nm, donor λem=615 nm; acceptor λem=665 nm; Dichroic LANCE dual). Time resolved fluorescent intensity measurements were made at both emission wavelengths and the ratio of acceptor/donor was calculated and used for data analysis. All data was normalized to the mean of 16 high (inhibitor control—Example 11 of WO 2011/054846A1) and 16 low (DMSO) control wells on each plate. […]
(Time-resolved FRET reads energy transfer from a long-lived donor to a nearby acceptor.)

For `Cn1cc(-c2ccnc(OCC3CCOCC3)c2)c2oc(CN3CCN(S(C)(=O)=O)CC3)cc2c1=O` [Example 7, 5-methyl-2-((4-(methylsulfonyl)piperazin-1-yl)methyl)-7-(2-((tetrahydro-2H-pyran-4-yl)methoxy)pyridin-4-yl)furo[3,2-c]pyridin-4(5H)-one], the IC50 was not above 100 nM.

For `Cn1cc(-c2ccnc(NCc3ccccn3)c2)c2oc(CN3CCCNCC3)cc2c1=O` [Example 34, 2-((1,4-diazepan-1-yl)methyl)-5-methyl-7-(2-((pyridin-2-ylmethyl)amino)pyridine-4-yl)furo[3,2-c]pyridin-4(5H)-one hydrochloride], the IC50 was not above 100 nM.

Consider `CC(c1cc2c(=O)n(C)cc(-c3ccnc(OCC4CCOCC4)c3)c2o1)N1CCN(S(C)(=O)=O)CC1` (centres unmarked) [Example 21, 5-methyl-2-(1-(4-(methylsulfonyl)piperazin-1-yl)ethyl)-7-(2-((tetrahydro-2H-pyran-4-yl)methoxy)pyridin-4-yl)furo[3,2-c]pyridin-4(5H)-one formate], for which the IC50 was not above 100 nM.

Turning to `CC(=O)Nc1cc(-c2cn(C)c(=O)c3cc(CN4CCN(S(C)(=O)=O)C[C@H]4C)oc23)ccn1` [Example 2, (R)—N-(4-(5-methyl-2-((2-methyl-4-(methylsulfonyl)piperazin-1-yl)methyl)-4-oxo-4,5-dihydrofuro[3,2-c]pyridin-7-yl)pyridin-2-yl)acetamide], the IC50 is not above 100 nM.

Regarding `C[C@@H]1CN(S(C)(=O)=O)CCN1Cc1cc2c(=O)n(C)cc(-c3ccncc3O)c2o1` [Example 60, (R)-7-(3-hydroxypyridin-4-yl)-5-methyl-2-((2-methyl-4-(methylsulfonyl)piperazin-1-yl)methyl)furo[3,2-c]pyridin-4(5H)-one], the IC50 is not above 100 nM.

`CC(Oc1cncc(-c2cn(C)c(=O)c3cc(CN4CCN(S(C)(=O)=O)CC4)oc23)c1)c1ccccc1` (centres unmarked) [Example 12, 5-methyl-2-((4-(methylsulfonyl)piperazin-1-yl)methyl)-7-(5-(1-phenylethoxy)pyridin-3-yl)furo[3,2-c]pyridin-4(5H)-one]: the IC50 was not above 100 nM.

As to `C[C@@H]1CN(S(C)(=O)=O)CCN1Cc1cc2c(=O)n(C)cc(-c3ccnc(N)c3)c2o1` [Example 59, (R)-7-(2-aminopyridin-4-yl)-5-methyl-2-((2-methyl-4-(methylsulfonyl)piperazin-1-yl)methyl)furo[3,2-c]pyridin-4(5H)-one], the IC50 is not above 100 nM.

Consider `CC(Nc1cccc(-c2cn(C)c(=O)c3cc(CN4CCN(S(C)(=O)=O)CC4)oc23)c1)c1ccccc1` (centres unmarked) [Example 15, 5-methyl-2-((4-(methylsulfonyl)piperazin-1-yl)methyl)-7-(3-((1-phenylethyl)amino)phenyl)furo[3,2-c]pyridin-4(5H)-one], for which the IC50 was not above 100 nM.

`C[C@@H]1CN(S(C)(=O)=O)CCN1Cc1cc2c(=O)n(C)cc(-c3ccncc3OCCF)c2o1` [Example 72, (R)-7-(3-(2-fluoroethoxy)pyridin-4-yl)-5-methyl-2-((2-methyl-4-(methylsulfonyl)piperazin-1-yl)methyl)furo[3,2-c]pyridin-4(5H)-one]: the IC50 was not above 100 nM.

For `Cn1cc(-c2cccc(OCc3ccccc3)c2)c2oc(CN3CCN(S(C)(=O)=O)CC3)cc2c1=O` [Example 3, 7-(3-(benzyloxy)phenyl)-5-methyl-2-((4-(methylsulfonyl)piperazin-1-yl)methyl)furo[3,2-c]pyridin-4(5H)-one], the IC50 was not above 100 nM.

For `C[C@@H]1CN(S(C)(=O)=O)CCN1Cc1cc2c(=O)n(C)cc(-c3cccc(NC(=O)CCCCN)c3)c2o1` [Example 64, (R)-5-amino-N-(3-(5-methyl-2-((2-methyl-4-(methylsulfonyl)piperazin-1-yl)methyl)-4-oxo-4,5-dihydrofuro[3,2-c]pyridin-7-yl)phenyl)pentanamide hydrochloride], the IC50 is not above 100 nM.

`CCNC(=O)c1ccc(-c2cn(C)c(=O)c3cc(CN4CCN(S(C)(=O)=O)CC4)oc23)c(OCC2CC2)c1` [Example 68, 3-(cyclopropylmethoxy)-N-ethyl-4-(5-methyl-2-((4-(methylsulfonyl)piperazin-1-yl)methyl)-4-oxo-4,5-dihydrofuro[3,2-c]pyridin-7-yl)benzamide]: the IC50 is not above 100 nM.

On to `CC(=O)N1CCN(Cc2cc3c(=O)n(C)cc(-c4ccnc(OCC5CCOCC5)c4)c3o2)C(C)C1` (centres unmarked) [Example 47, 2-((4-acetyl-2-methylpiperazin-1-yl)methyl)-5-methyl-7-(2-((tetrahydro-2H-pyran-4-yl)methoxy)pyridin-4-yl)furo[3,2-c]pyridin-4(5H)-one hydrochloride], for which the IC50 is not above 100 nM.

As to `CN1CCCN(Cc2cc3c(=O)n(C)cc(-c4cccc(NCc5ccccn5)c4)c3o2)CC1` [Example 57, 5-methyl-2-((4-methyl-1,4-diazepan-1-yl)methyl)-7-(3-((pyridin-2-ylmethyl)amino)phenyl)furo[3,2-c]pyridin-4(5H)-one hydrochloride], the IC50 is not above 100 nM.

Consider `C[C@@H]1CN(S(C)(=O)=O)CCN1Cc1cc2c(=O)n(C)cc(-c3ccncc3OCC3CC3(F)F)c2o1` (stereo partly drawn) [Example 61, 7-(3-((2,2-difluorocyclopropyl)methoxy)pyridin-4-yl)-5-methyl-2-(((R)-2-methyl-4-(methylsulfonyl)piperazin-1-yl)methyl)furo[3,2-c]pyridin-4(5H)-one], for which the IC50 is not above 10 nM.

As for `C[C@@H]1CN(S(C)(=O)=O)CCN1Cc1cc2c(=O)n(C)cc(-c3cccc(N)c3)c2o1` [Example 50, (R)-7-(3-aminophenyl)-5-methyl-2-((2-methyl-4-(methylsulfonyl)piperazin-1-yl)methyl)furo[3,2-c]pyridin-4(5H)-one], the IC50 is not above 100 nM.

Regarding `Cn1cc(-c2cccc(NCc3ccccc3)c2)c2oc(CN3CCN(S(C)(=O)=O)CC3)cc2c1=O` [Example 4, 7-(3-(benzylamino)phenyl)-5-methyl-2-((4-(methylsulfonyl)piperazin-1-yl)methyl)furo[3,2-c]pyridin-4(5H)-one], the IC50 was not above 100 nM.

With `C[C@@H]1CN(S(C)(=O)=O)CCN1Cc1cc2c(=O)n(C)cc(-c3ccncc3OC[C@@H]3CCO3)c2o1` [Example 43, 5-methyl-2-(((R)-2-methyl-4-(methylsulfonyl)piperazin-1-yl)methyl)-7-(3-((S)-oxetan-2-ylmethoxy)pyridin-4-yl)furo[3,2-c]pyridin-4(5H)-one], the IC50 is not above 100 nM.

With `C[C@@H]1CN(S(C)(=O)=O)CCN1Cc1cc2c(=O)n(C)cc(-c3ccnc(NC(=O)C4CC4)c3)c2o1` [Example 24, (R)—N-(4-(5-methyl-2-((2-methyl-4-(methylsulfonyl)piperazin-1-yl)methyl)-4-oxo-4,5-dihydrofuro[3,2-c]pyridin-7-yl)pyridin-2-yl)cyclopropanecarboxamide], the IC50 is not above 100 nM.

As to `CC(=O)Nc1cc(-c2cn(C)c(=O)c3cc(C(C)N4CCN(S(C)(=O)=O)CC4)oc23)ccn1` (centres unmarked) [Example 36, N-(4-(5-methyl-2-(1-(4-(methylsulfonyl)piperazin-1-yl)ethyl)-4-oxo-4,5-dihydrofuro[3,2-c]pyridin-7-yl)pyridin-2-yl)acetamide, formic acid salt], the IC50 was not above 100 nM.
